Assay results from publication PMC6364417, “Kinase inhibitor library screening identifies synergistic drug combinations effective in sensitive and resistant melanoma cells” (Journal of Experimental & Clinical Cancer Research : CR, 2019).

Columns and labels:
Assay in all cases: Kinase inhibitor library screening, PrestoBlue cell viability, 1 or 10 μM, 72 h
[1] = system: IGR37-GP cells (Dabrafenib-resistant); conditions: IGR37 GP
[2] = system: A375-XP cells (Vemurafenib-resistant); conditions: A375 XP; for cell viability (kinase inhibitor library screening): in %
A375 cells (parental) = conditions: A375 Parental; for cell viability (kinase inhibitor library screening): in %
[3] = system: IGR37-XP cells (Vemurafenib-resistant); conditions: IGR37 XP
[4] = system: 501Mel-XP cells (Vemurafenib-resistant); conditions: 501Mel XP, in %
[5] = system: A375-GP cells (Dabrafenib-resistant); conditions: A375 GP; for cell viability (kinase inhibitor library screening): in %
501Mel cells (parental) = conditions: 501Mel Parental, in %
Procedure, shortened: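 Two concentrations of every kinase inhibitor were tested on each melanoma line and its resistant counterparts, and cell survival was quantified by PrestoBlue against untreated wells.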

IGR37 cells (parental) = conditions: IGR37 Parental, in %
[6] = system: 501Mel-GP cells (Dabrafenib-resistant); conditions: 501Mel GP, in %

Structure (SMILES)	cell viability (kinase inhibitor library screening) ([1]; 1μΜ, in %)	cell viability (kinase inhibitor library screening) ([1]; 10μΜ, in %)	cell viability (kinase inhibitor library screening) ([2]; 10μΜ)	cell viability (kinase inhibitor library screening) (A375 cells (parental); 1μΜ)	cell viability (kinase inhibitor library screening) (A375 cells (parental); 10μΜ)	cell viability (kinase inhibitor library screening) ([3]; 1μΜ, in %)	cell viability (kinase inhibitor library screening) ([3]; 10μΜ, in %)	cell viability (kinase inhibitor library screening) ([4]; 10μΜ)	cell viability (kinase inhibitor library screening) ([5]; 1μΜ)	cell viability (kinase inhibitor library screening) ([5]; 10μΜ)	cell viability (kinase inhibitor library screening) (501Mel cells (parental); 1μΜ)	cell viability (kinase inhibitor library screening) (501Mel cells (parental); 10μΜ)	cell viability (kinase inhibitor library screening) (IGR37 cells (parental); 1μΜ)	cell viability (kinase inhibitor library screening) (IGR37 cells (parental); 10μΜ)	cell viability (kinase inhibitor library screening) ([6]; 1μΜ)	cell viability (kinase inhibitor library screening) ([6]; 10μΜ)	other results
O=C(NCc1ccccc1)c1csc(Nc2ccncn2)n1 [Thiazovivin]	92.4	93.5	107.7	103.7	81.8	98.5	87.0	28.9	96.7	87.9	107.2	76.8	97.5	89.5	104.3	43.8	
Cn1c(=O)n(-c2ccc(C(C)(C)C#N)cc2)c2c3cc(-c4cnc5ccccc5c4)ccc3ncc21 [BEZ235 (NVP-BEZ235)]																	Cell viability in kinase inhibitor library screening, IGR37 GP, 10μΜ ([1]; 10μΜ, 72 h): 6.1%; Cell viability in kinase inhibitor library screening, IGR37 GP, 1μΜ ([1]; 1μΜ, 72 h, in %): 53.8; Cell viability in kinase inhibitor library screening, A375 XP, 1μΜ ([2]; 1μΜ, 72 h): 20.9; Cell viability in kinase inhibitor library screening, A375 XP, 10μΜ ([2]; 10μΜ, 72 h): 13.2; Cell viability in kinase inhibitor library screening, A375 Parental, 10μΜ (A375 cells (parental); 10μΜ, 72 h): 10.9; Cell viability in kinase inhibitor library screening, A375 Parental, 1μΜ (A375 cells (parental); 1μΜ, 72 h): 23.9; Cell viability in kinase inhibitor library screening, IGR37 XP, 10μΜ ([3]; 10μΜ, 72 h): 5.2%; Cell viability in kinase inhibitor library screening, IGR37 XP, 1μΜ ([3]; 1μΜ, 72 h, in %): 49.3; Cell viability in kinase inhibitor library screening, 501Mel XP, 1μΜ ([4]; 1μΜ, 72 h): 11.4; Cell viability in kinase inhibitor library screening, 501Mel XP, 10μΜ ([4]; 10μΜ, 72 h): 0.9; Cell viability in kinase inhibitor library screening, A375 GP, 1μΜ ([5]; 1μΜ, 72 h): 22.0; Cell viability in kinase inhibitor library screening, A375 GP, 10μΜ ([5]; 10μΜ, 72 h): 8.5; Cell viability in kinase inhibitor library screening, 501Mel Parental, 1μΜ (501Mel cells (parental); 1μΜ, 72 h): 13.9; Cell viability in kinase inhibitor library screening, 501Mel Parental, 10μΜ (501Mel cells (parental); 10μΜ, 72 h): 2.6; Cell viability in kinase inhibitor library screening, IGR37 Parental, 1μΜ (IGR37 cells (parental); 1μΜ, 72 h): 26.1; Cell viability in kinase inhibitor library screening, IGR37 Parental, 10μΜ (IGR37 cells (parental); 10μΜ, 72 h): 12.4; Cell viability in kinase inhibitor library screening, 501Mel GP, 1μΜ ([6]; 1μΜ, 72 h): 19.1; Cell viability in kinase inhibitor library screening, 501Mel GP, 10μΜ ([6]; 10μΜ, 72 h): 6.4
Cc1cc(C)c(/C=C2\C(=O)Nc3ccccc32)[nH]1 [Semaxanib (SU5416)]	92.4	88.3	97.5	104.2	98.1	100.1	61.3	70.1	106.4	85.4	100.0	90.0	100.1	97.0	104.6	82.4	cell viability (kinase inhibitor library screening) ([4]; 1μΜ): 89.0
